{"source": "patent US12115154B2", "about": "“Compounds for the modulation of proprotein convertase subtilisin/kexin type 9 (PCSK9)” (SRX Cardio, LLC, priority 2020, dated 2024)", "key": {"[1]": {"biological_target": "T1, PCSK9 (Homo sapiens, UniProt Q8NBP7)", "T1 construct": "purchased Cayman Chemical 20631; host or cells: added to HepG2, HuH7, FL83B or shPCSK9 knock-down lines", "T1 sequence (Q8NBP7 153-692)": "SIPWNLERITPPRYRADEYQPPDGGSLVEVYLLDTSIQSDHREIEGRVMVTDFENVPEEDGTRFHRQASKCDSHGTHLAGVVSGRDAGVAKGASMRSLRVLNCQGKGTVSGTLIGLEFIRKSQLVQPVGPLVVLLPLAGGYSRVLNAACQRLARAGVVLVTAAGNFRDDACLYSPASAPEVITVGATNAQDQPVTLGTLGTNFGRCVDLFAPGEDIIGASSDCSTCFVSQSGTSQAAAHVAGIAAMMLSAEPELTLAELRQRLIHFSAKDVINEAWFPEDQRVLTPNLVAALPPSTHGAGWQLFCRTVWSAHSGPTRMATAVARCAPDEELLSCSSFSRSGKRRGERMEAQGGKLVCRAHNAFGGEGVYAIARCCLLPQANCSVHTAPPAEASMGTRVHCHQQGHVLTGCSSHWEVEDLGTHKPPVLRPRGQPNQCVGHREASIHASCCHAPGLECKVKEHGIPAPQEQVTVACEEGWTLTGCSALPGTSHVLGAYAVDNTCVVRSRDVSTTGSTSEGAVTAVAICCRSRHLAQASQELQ", "test": "Biodesy Direct Binding Measurement (second harmonic generation)", "settings": "Biodesy Delta System", "excerpt": "The compounds of the present disclosure may be tested for binding to, inhibition of, and/or modulation of PCSK9 activity according to the following protocols.\nDirect binding can be measured using the commercially available Biodesy Delta System (BDS, http://www.biodesy.com/products/; accessed Aug. 1, 2018). The BDS is a laser-based approach that utilizes second harmonic generation from a labeled protein to detect ligand binding, the method of which is covered and described by U.S. Pat. Nos. 9,395,358 and 8,932,822, and has been commercialized by Biodesy Inc. (South San Francisco, Calif.)."}, "[2]": {"system": "Male C57BL/6 mice", "test": "Liver panel (animal health) in high fat diet mice", "assay_type": "in vivo", "method": "(§1) A representative compound (Compound 1041) was tested for oral bioavailability and efficacy in mice. Male C57BL/6 mice were purchased from Taconic Biosciences (Rensselaer, New York) and housed under standard conditions with the exception of being provided a high fat diet (#TD.90221, Envigo, Madison, Wis.) and water ad libitum. Following 4 weeks of diet acclimation the animals were then dosed with compound or vehicle as control specimens. Compound readily dissolved at 1.5 mg/ml in a 1% Tween-80 aqueous solution with 10-15 minutes sonication. This solution was used at the 1.5 mg/ml concentration for oral (PO) dosing or further diluted with sterile saline for intravenous (IV) dosing.\nTo assess animal health following compound exposure, a liver panel (Test Code #60405) was tested by IDEXX BioAnalytics (North Grafton, Mass.). […] Also of note, AST and ALT levels in the liver panel were elevated in the PO vehicle, which is attributed to the high fat diet used in the study (Envigo, #TD.90221)."}, "[3]": {"test": "In vivo PK in mice (IV and PO)", "settings": "male, C57BL/6, mouse, plasma, 3 mg/kg IV versus 15 mg/kg PO, read-out: oral bioavailability (F %)", "method": "as §1\nTest animals received a single dose at 3 mg/kg by IV or 15 mg/kg by PO while control animals received an equal volume of vehicle control by IV or PO, respectively. Plasma samples were collected at 0.25, […], 1, 2, 3, 6, 8, 24, and 48 hours while liver specimens were collected at 8, 24, and 48 hours and drug concentration were measured by LC-MS/MS per standard protocols.\nIn brief, blood was immediately centrifuged, and the resulting plasma was frozen and stored at −80° C. until analysis. […] Compound concentrations were determined by a liquid chromatography-mass tandem spectrometry (LC-MS/MS) per routine method (Quintana Discovery, Hayward, Calif.) following the standard protocol. […]"}, "[4]": {"system": "Male C57BL/6 mice", "test": "In vivo efficacy: serum LDL in high fat diet mice", "settings": "for reduction in LDL: daily PO 15 mg/kg", "method": "as §1\n[…] Plasma samples were collected at 0.25, […], 1, 2, 3, 6, 8, 24, and 48 hours while liver specimens were collected at 8, 24, and 48 hours and drug concentration were measured by LC-MS/MS per standard protocols.\nSerum lipid levels were measured using commercially available veterinary health testing services provided by IDEXX BioAnalytics (North Grafton, Mass.). Blood specimens were collected from the animals and the resulting serum was frozen and stored at −80° C. until analysis. Specimens were measured using the commercial service's standard procedures for the Rodent Lipid Panel (Test Code #6290)."}, "[5]": {"test": "Dissolution in dosing solution", "assay_type": "physicochemical", "settings": "1% Tween-80 aqueous solution, 10-15 minutes sonication", "method": "as §1"}, "[6]": {"settings": "daily 15 mg/kg PO, 72-hour group, versus vehicle control"}}, "data": [{"smiles": "Fc1ccc(-c2ccc(C3CCCN(CC4CC4)C3)cc2)cc1", "note": "(stereo not shown) [Compound 1.001, 1-(cyclopropylmethyl)-3-(4′-fluoro-[1,1′-biphenyl]-4-yl)piperidine]", "values": [{"measurement": "ASHG", "setting": "[1]", "value": "> 10", "unit": "%"}]}, {"smiles": "Cc1cc(-c2ccc(F)cc2)ccc1C1CCCN(C2CCCC2)C1", "note": "(stereo not shown) [Compound 1.041, 1-cyclopentyl-3-(4′-fluoro-3-methyl-[1,1′-biphenyl]-4-yl)piperidine]", "values": [{"measurement": "reduction in ALT levels", "setting": "[2]; [6]", "value": 77.7, "unit": "%"}, {"measurement": "reduction in AST levels", "setting": "[2]; [6]", "value": 72.1, "unit": "%"}, {"measurement": "liver panel toxicity", "setting": "[2]; three daily 15 mg/kg PO doses, 72 hours, versus PO vehicle", "value": "no overt toxicity"}, {"measurement": "bioavailability", "setting": "[3]", "value": 44, "unit": "%"}, {"measurement": "reduction in LDL", "setting": "[4]; at 48 hours (dosed at t=0 and t=24 hours)", "value": 32, "unit": "%"}, {"measurement": "reduction in LDL", "setting": "[4]; at 72 hours (dosed at t=0, t=24, t=48 hours)", "value": 50, "unit": "%"}, {"measurement": "reduction in LDL relative to IV vehicle control group", "setting": "[4]; single 3 mg/kg IV dose, 48 hours after dosing", "value": 19, "unit": "%"}, {"measurement": "reduction in LDL relative to PO vehicle control group", "setting": "[4]; single 15 mg/kg PO dose, 48 hours after dosing", "value": 32, "unit": "%"}, {"measurement": "concentration readily dissolved", "setting": "[5]", "value": "≥ 1500", "unit": "µg/mL"}]}]}
